# Data as given in patent US4771130A, “Target-entrapped drugs” (priority 1984, dated 1988).
# Legend:
# [1] = biological target: T1, aldose reductase in a crude extract of rat lens (Rattus norvegicus, UniProt P07943); experiment: Reversible inhibition of aldose reductase (Ki and type of inhibition); assay type: biochemical
# T1 construct: aldose reductase in a crude extract of rat lens; from tissue; host or cells: rat lens (crude extract, usually lyophilized)
# Protocol: (§1) Lens aldose reductase used for test purposes was extracted and assayed by the technique reported by Hayman and Kinoshita (see J.Biol. Chem. 240, 877-882 (1965)). The extract was usually adjusted to pH 7.0 and lyophilized. This product is stable indefinitely in the cold and provides particularly reliable assay results since day to day rates are reproducible.
# The Ki and type of inhibition of aldose reductase by Asub-Q (0.274 mM) was determined at pH 6.3 in 0.1M phosphate buffer using a saturating concentration of NADPH (121 uM). The results are plotted in FIG. 6.
# aldose reductase [2] = biological target: T2, aldose reductase (Rattus norvegicus, UniProt P07943); experiment: X-ray induced irreversible inhibition of aldose reductase; assay type: biochemical
# Protocol: as §1
# X-ray irradiation was performed with a General Electric Maximum-100 type X-ray machine using the following settings: 100 kVp, 5 ma, 3 mm Al added, HUL=2.6 mm Al, calibrated output=175 R/min. at 15 cm. Two ml of solution with components at the same concentrations used in photolysis experiments were X-rayed in 50 mm diameter open petri dishes placed at 15.9 cm from the X-ray source. The dosages were varied from 5 to 100 Rads, requiring 1, 2, 3, 4, 34 and 51 seconds exposure, respectively.
# aldose reductase [3] = biological target: T2, aldose reductase; experiment: Irreversible inhibition of aldose reductase induced by photoirradiation (350 nm); assay type: biochemical
# Protocol: as §1
# Photolysis of Asub-Q and aldose reductase was studied in the presence and absence of saturating substrate concentrations (0.274 mM glyceraldehyde, and 0.111 mM NADPH) in 0.1M phosphate buffer, pH 6.3. Photolysis was performed in 3 ml quartz spectrophotometer cuvettes in a Rayonet photochemical reactor with a 350 nm maxima light source. The enzyme was separated from the non-covalently bound inhibitor by passing the photolyzed solution through a Sephadex G-25 column as described above. The results are plotted in FIG. 7. […] The enzyme photolyzed with inhibitor in the presence or absence of substrate is 80% inhibited after 10 minutes.
# [4] = test system: cataract formation in rats; experiment: Cataract formation in galactose-fed rats: light irradiated; assay type: in vivo, rat
# Protocol: Approximately 5-10 μl of Asub-Q (0.65 mM) dissolved in DMSO was injected into the aqueous humour of the right eye of each of three 75 g. rats. After 1 hour, when the drug had diffused into the lens, the rat was irradiated for 30 minutes in a Rayonet Photochemical Reactor. The rats were fed ad-libinum with a mix of 1:1 chow:galactose. The control eyes (left eye) developed detectable cataracts after 3 days.
# [5] = test system: cataract formation in rat lenses; experiment: Cataract formation in rat lenses in organ culture: X-ray irradiated; assay type: cell-based; settings: 175 Rads X-rays, galactose, eight days
# Protocol: (§2) Organ culture was performed by a modification of the method of Kinoshita et al (see Biochem. Biophys. Acta 158, 472-475 (1968)) with a modified TC 199 medium using 50-75 gm Sprague-Dawly male rats, care being taken to avoid contamination of the system. Fresh rat lenses were treated with Asub-Q in the manner hereinafter described and incubated in the presence of fructose and in the presence of galactose, in order to determine the effect of the Asub-Q. The Asub-Q treatment involved the following:
# This experiment was similar to the photoirradiation experiment except that the lenses were irradiated with 175 Rads of X-rays in place of light. […] Lenses incubated with galactose would be completely opaque (V).
# [6] = test system: cataract formation in rat lenses; experiment: Cataract formation in rat lenses in organ culture: light irradiated; assay type: cell-based
# Protocol: as §2
# (a) rat lenses were incubated in the dark in an incubation medium containing Asub-Q for two hours to permit the drug to diffuse into the lens;
# (b) the lenses were then placed into a fresh medium and irradiated for 10 minutes for complete inhibition of aldose reductase;
# (c) the lenses were then placed into a fresh medium for […] with four changes in medium in the first 24 hours to permit non-covalently bound drug to diffuse out; and
# (d) the lenses were then incubated in a medium containing fructose or galactose.
# In a typical experiment four groups of 20 lens, four to a Petri dish, were used. The first group was supplemented with fructose (30 mM); the second, with galactose (30 mM); the third, with fructose (30 mM) and treated with Asub-Q (0.145 mM); and the fourth, with galactose (30 mM) and treated with Asub-Q ([…]). The lens were photographed with color film on a red background and evaluated on a O to V scale with O assigned to a clear lens and V to a lens with a totally opaque cataract. The procedure for treatment and photolysis of the lens was described above.
# The number outside the parenthesis is the status of the lenses: O to V. The number inside the parenthesis is the number of the lenses.
# [7] = pH 6.3, 0.1M phosphate buffer, NADPH 121 uM
substance,measurement,setting,value
N-(2-nitro-4-azidophenyl) hexylenediamine-N-(2'-O-quercitrin) [Asub-Q],Ki compared with quercitrin,[1]; crude extract of rat lens,very similar to quercitrin
same,Ki,[1]; [7],480 nM
same,type of inhibition,[1]; [7],noncompetitive inhibitor
same,reversible inhibitor activity compared with quercitrin,[1]; summary statement,about the same as quercitrin
same,reversible inhibition of aldose reductase,[1]; without photolysis,reversibly inhibits aldose reductase
same,loss of enzyme activity,aldose reductase [2]; 20 Rads irradiation or above,approximately two thirds
same,irreversible inhibition of aldose reductase,aldose reductase [2]; mixture of Asub-Q and rat lens extract irradiated with X-rays,extensively irreversibly inhibited
same,inhibition of enzyme photolyzed with inhibitor,"aldose reductase [3]; 10 minutes photolysis, 350 nm, in presence or absence of substrate, pH 6.3",80%
same,type of inhibition after irradiation (kinetic analysis),"aldose reductase [3]; light maximum at 350 nm, chromatographic removal of small molecules",both specific irreversible inhibition and non-specifically bound reversible (soluble immobilized inhibitor) inhibition occur
same,irreversible inhibition,"aldose reductase [3]; one minute photolysis, 350 nm",roughly 40%
same,irreversible inhibition on irradiation,"aldose reductase [3]; photo- or X-ray irradiation, summary statement",photo- or X-ray sensitive irreversible affinity inhibitor for aldose reductase
same,cataract in treated right eyes,"[4]; 5-10 μl of 0.65 mM in aqueous humour, light 30 minutes, 1:1 chow:galactose, 7 days",no cataract was observed
same,"cataract formation, repeat experiment",[4]; repeated on thirty rats,equivalent results
same,number of lenses per cataract status,[5],5 clear lenses (O) and 6 with a slight cataract (I)
same,cataract progression vs fructose control,[6]; day 35,not nearly as advanced
same,lens clarity,"[6]; lenses containing Asub-Q, after three days",remained clear
same,resistance to cataract formation vs fructose control lenses,"[6]; overall, organ culture",at least as impervious to cataract formation as control lenses that were incubated with fructose
